Measured values taken from PubChem BioAssay AID2834 (Southern Research Specialized Biocontainment Screening …, 2010).
Activity calls are given as the source filed them.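 Rule for the calls: active = more than 40% inhibition of the growth reporter signal at one or more tested doses; inactive = below 40% inhibition at every dose.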

tested on: S. Typhimurium nmpC-GFP reporter (non-PhoP growth counter-screen), low Mg2+, 4 h; test: nmpC-GFP reporter inhibition in S. Typhimurium, dose response, counter-screen for PhoP regulon inhibitor project, purified and synthesized compounds, set 2 (AID 2834)

SMILES | IC50
CCn1cc(C(=O)O)c(=O)c2cc(F)c(N3CCN(C(=S)Nc4ccccc4Cl)CC3)cc21 | > 150 µM (inactive)
O=C1C2=C(Nc3ccccc3SC2c2ccccc2Cl)c2ccccc21 (configuration not stated) | > 150 µM (inactive)
COc1cccc(C2Sc3ccccc3NC3=C2C(=O)c2ccccc23)c1 (configuration not stated) | > 150 µM (inactive)
S=C(NCc1ccccc1Cl)Nc1ccncc1 | > 150 µM (inactive)
CCn1cc(C(=O)O)c(=O)c2cc(F)c(N3CCN(C(=S)NCc4ccccc4)CC3)cc21 | > 150 µM (inactive)
CCn1cc(C(=O)O)c(=O)c2cc(F)c(N3CCN(C(=S)Nc4ccccc4C(F)(F)F)CC3)cc21 | 76.4 µM
O=S(=O)(Nc1c(S(=O)(=O)c2ccccc2)c2nc3ccccc3nc2n1C1CCCCC1)c1ccccc1 | < 0.15 µM
COc1cccc(NC(=S)NCc2ccc(Cl)cc2)c1 | > 150 µM (inactive)
O=[N+]([O-])c1ccc(CNC2CCCc3ccccc32)cc1 (configuration not stated) | < 0.15 µM
COc1ccc(NC(=S)NCc2ccc(Cl)cc2)cc1 | > 150 µM (inactive)
O=C1C2=C(Nc3ccccc3SC2c2cccc(Cl)c2)c2ccccc21 (configuration not stated) | > 150 µM (inactive)
C1=C(CCNc2ncnc3c2[nH]c2ccccc23)CCCC1 | < 0.15 µM
CCn1cc(C(=O)O)c(=O)c2cc(F)c(N3CCN(C(=S)NC(=O)c4ccccc4F)CC3)cc21 | < 0.15 µM
CN(C)CCCN(C(=O)CCc1ccccc1)c1nc2ccc(Cl)cc2s1 | < 0.15 µM
O=C(Nc1cccnc1)c1cc(Br)c(Br)s1 | < 0.15 µM
O=C(Nc1nnc(-c2cccs2)o1)c1cccc(C(F)(F)F)c1 | < 0.15 µM
Cc1cccc(NC(=S)NCc2ccc(Cl)cc2)c1 | > 150 µM (inactive)
O=C1C2=C(Nc3ccccc3SC2c2ccco2)c2ccccc21 (configuration not stated) | < 0.15 µM
COc1ccc(CNC(=S)Nc2ccncc2)cc1 | > 150 µM (inactive)

SMILES | IC50
S=C(NCc1ccc(Cl)cc1)Nc1ccc(Br)cc1 | > 150 µM (inactive)
Cc1ccc(Nc2cc(C)c3c(O)cccc3n2)cc1C | < 0.15 µM
S=C(NCc1ccc(Cl)cc1)Nc1cccc(Cl)c1 | > 150 µM (inactive)
COc1ccccc1Nc1nc(NCc2ccco2)c2ccccc2n1 | < 0.15 µM
O=C(O)c1cn(-c2ccc(F)cc2)c2cc(Cl)c(F)cc2c1=O | < 0.15 µM
O=C(Nc1ccccc1)N1CCCN(Cc2ccccc2F)C1 | > 150 µM (inactive)
O=C(Nc1ccccc1Cl)N1CCCN(Cc2ccccc2F)C1 | > 150 µM (inactive)
CCn1cc(C(=O)O)c(=O)c2cc(F)c(N3CCN(C(=S)NC(=O)c4ccccc4Cl)CC3)cc21 | < 0.15 µM
CCn1cc(C(=O)O)c(=O)c2cc(F)c(N3CCN(C(=S)NC)CC3)cc21 | > 150 µM (inactive)
N#C/C(=C\c1ccc[nH]1)C(=O)NC1CC1 | < 0.15 µM
O=C(Nc1ccc(Br)cc1)N1CCCN(Cc2ccccc2F)C1 | > 150 µM (inactive)
O=c1c2ccccc2[nH]c2ccc(F)cc12 | < 0.15 µM
CN1CCN(C2=Cc3cc(Cl)ccc3Sc3cc(F)ccc32)CC1 | < 0.15 µM
O=C1C2=C(Nc3ccccc3SC2c2ccccc2Br)c2ccccc21 (configuration not stated) | > 150 µM (inactive)
O=C(NCc1ccccc1)N1CCCN(Cc2ccccc2F)C1 | > 150 µM (inactive)
CN1CCc2nc(SCC(=O)Nc3cccc(F)c3)c(C#N)c(-c3cccs3)c2C1 | < 0.15 µM
COc1c(N2CCN(C(=S)NCc3ccccc3)C(C)C2)c(F)cc2c(=O)c(C(=O)O)cn(C3CC3)c12 (configuration not stated) | < 0.15 µM
CCCCn1c(NS(=O)(=O)c2ccc(C)cc2)c(S(=O)(=O)c2ccccc2)c2nc3ccccc3nc21 | < 0.15 µM
CSc1nc2cc(Oc3cccc(Cl)c3Cl)c(Cl)cc2[nH]1 | < 0.15 µM

SMILES | IC50
O=C1C2=C(Nc3ccccc3SC2c2ccc(C(F)(F)F)cc2)c2ccccc21 (configuration not stated) | > 150 µM (inactive)
Fc1ccccc1NC(=S)NCc1ccc(Cl)cc1 | > 150 µM (inactive)
S=C(NCc1ccc(Cl)cc1)Nc1cccnc1 | > 150 µM (inactive)
Cc1ccc(CN2CCCN(C(=O)Nc3ccc(Cl)cc3)C2)cc1 | > 150 µM (inactive)
COc1ccccc1NC(=O)N1CCCN(Cc2ccccc2F)C1 | > 150 µM (inactive)
CCOc1ccc(NC(=S)N2CCN(c3cc4c(cc3F)c(=O)c(C(=O)O)cn4CC)CC2)cc1 | > 150 µM (inactive)
COc1ccc(NC(=O)c2cc(Br)c(Br)s2)cn1 | < 0.15 µM
CCCCn1c(NS(=O)(=O)c2ccccc2)c(S(=O)(=O)c2ccc(C)cc2)c2nc3ccccc3nc21 | < 0.15 µM
O=C1c2ccccc2C2=Nc3ccccc3SC(c3ccccc3F)C12 (configuration not stated) | < 0.15 µM
O=C(Nc1ccc(Cl)cc1)N1CCCN(Cc2ccc(F)cc2)C1 | > 150 µM (inactive)
O=C1C2=C(Nc3ccccc3SC2c2ccccc2C(F)(F)F)c2ccccc21 (configuration not stated) | > 150 µM (inactive)
CCn1cc(C(=O)O)c(=O)c2cc(F)c(N3CCN(C(=S)Nc4ccc(Cl)cc4)CC3)cc21 | 131 µM
O=C1C2=C(Nc3ccccc3SC2c2ccsc2)c2ccccc21 (configuration not stated) | > 150 µM (inactive)
CCCCCNC(=O)c1cn(CC)c2cc(N3CCN(C)CC3)c(F)cc2c1=O | < 0.15 µM
O=C(Nc1ccccc1)N1CCCN(Cc2ccc(F)cc2)C1 | > 150 µM (inactive)
S=C(NCc1ccc(Cl)cc1)Nc1ccc(Cl)cc1 | > 150 µM (inactive)
O=C(Nc1ccc(Cl)cc1)N1CCCN(Cc2ccccc2F)C1 | < 0.15 µM
CCn1cc(C(=O)O)c(=O)c2cc(F)c(N3CCN(C(=S)Nc4ccccc4C)CC3)cc21 | > 150 µM (inactive)
Cc1ccc(NC(=S)NCc2ccc(Cl)cc2)cc1 | > 150 µM (inactive)
